From US11040035B2, “3-oxo-2,6-diphenyl-2,3-dihydropyridazine-4-carboxamides” (BAYER PHARMA AKTIENGESELLSCHAFT, priority 2016, dated 2021)
pIC50: −log10 of the molar value.

Experiments:
[1] = target: T1, AHR (Homo sapiens, UniProt P35869); assay: In vitro assay 1: antagonism in human cell line (transactivation assay, kynurenic acid prestimulated); conditions: Assay 1: AHR-luc Hum Antagonism IC50 [M], 150 μM kynurenic acid, 20 hours, firefly luciferase
T1 sequence (P35869 11-848): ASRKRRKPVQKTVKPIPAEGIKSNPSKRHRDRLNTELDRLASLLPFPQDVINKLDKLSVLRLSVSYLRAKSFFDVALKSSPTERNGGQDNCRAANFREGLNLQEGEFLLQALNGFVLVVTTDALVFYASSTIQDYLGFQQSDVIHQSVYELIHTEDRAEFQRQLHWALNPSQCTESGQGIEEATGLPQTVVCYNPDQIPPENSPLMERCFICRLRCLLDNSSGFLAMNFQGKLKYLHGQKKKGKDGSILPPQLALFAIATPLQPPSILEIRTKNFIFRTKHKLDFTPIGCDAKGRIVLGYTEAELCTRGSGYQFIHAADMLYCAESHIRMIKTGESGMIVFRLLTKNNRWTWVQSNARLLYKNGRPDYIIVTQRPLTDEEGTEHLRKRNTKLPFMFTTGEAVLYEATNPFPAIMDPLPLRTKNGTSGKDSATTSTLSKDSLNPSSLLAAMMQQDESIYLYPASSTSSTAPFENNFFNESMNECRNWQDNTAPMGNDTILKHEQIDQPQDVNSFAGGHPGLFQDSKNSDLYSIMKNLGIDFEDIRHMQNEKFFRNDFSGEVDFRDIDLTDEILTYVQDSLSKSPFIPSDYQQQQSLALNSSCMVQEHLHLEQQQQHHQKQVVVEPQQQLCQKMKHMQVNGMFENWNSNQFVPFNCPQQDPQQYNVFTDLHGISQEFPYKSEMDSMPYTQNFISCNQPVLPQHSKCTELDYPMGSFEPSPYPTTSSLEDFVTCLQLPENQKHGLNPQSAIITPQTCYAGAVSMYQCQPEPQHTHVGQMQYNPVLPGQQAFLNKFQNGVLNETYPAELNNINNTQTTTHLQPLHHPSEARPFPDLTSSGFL

[2] = target: T1, AHR; assay: In vitro assay 2: agonism in human cell line (transactivation assay); conditions: for IC50: Assay 2: AHR-luc Hum Agonism IC50 [M], no kynurenic acid, 20 hours, firefly luciferase; for pIC50: read-out: Assay 2: AHR-luc Hum Agonism IC50, no kynurenic acid, 20 hours, firefly luciferase

Row | Compound | IC50 [1] | IC50 [2] | pIC50 [2]
1 | COCC(O)CNC(=O)c1cc(-c2ccc(C)cc2)nn(-c2cccc(F)c2)c1=O (single isomer, unassigned; enantiomer 1) [Example 17, 2-(3-Fluorophenyl)-N-(2-hydroxy-3-methoxypropyl)-6-(4-methylphenyl)-3-oxo-2,3-dihydropyridazine-4-carboxamide, Enantiomer 1] | 2.11e-07 M | > 2e-05 M | –
2 | Cc1ccc(-c2cc(C(=O)NCC(O)C(F)(F)F)c(=O)n(-c3cccc(F)c3)n2)cc1 (single isomer, unassigned; enantiomer 2) [Example 6, 2-(3-Fluorophenyl)-6-(4-methylphenyl)-3-oxo-N-(3,3,3-trifluoro-2-hydroxypropyl)-2,3-dihydropyridazine-4-carboxamide, enantiomer 2] | 6.58e-08 M | – | < 4.70
3 | Cc1ccc(-c2cc(C(=O)NCC(O)C(C)C)c(=O)n(-c3cccc(F)c3)n2)cc1 (single isomer, unassigned; enantiomer 2) [Example 12, 2-(3-Fluorophenyl)-N-(2-hydroxy-3-methylbutyl)-6-(4-methylphenyl)-3-oxo-2,3-dihydropyridazine-4-carboxamide, enantiomer 2] | 1.22e-07 M | – | < 4.70
4 | Cc1ccc(-c2cc(C(=O)NCC(C)O)c(=O)n(-c3cccc(F)c3)n2)cc1 (single isomer, unassigned; enantiomer 2) [Example 15, 2-(3-Fluorophenyl)-N-(2-hydroxypropyl)-6-(4-methylphenyl)-3-oxo-2,3-dihydropyridazine-4-carboxamide, Enantiomer 2] | 2.62e-07 M | – | < 4.70
5 | COCC(O)CNC(=O)c1cc(-c2ccc(C)cc2)nn(-c2cccc(F)c2)c1=O (single isomer, unassigned; enantiomer 2) [Example 18, 2-(3-Fluorophenyl)-N-(2-hydroxy-3-methoxypropyl)-6-(4-methylphenyl)-3-oxo-2,3-dihydropyridazine-4-carboxamide, Enantiomer 2] | 3.39e-07 M | – | < 4.70
6 | Cc1ccc(-c2cc(C(=O)NCC(O)C(F)(F)F)c(=O)n(-c3cccc(F)c3)n2)cc1 (centres unmarked) [Example 4, 2-(3-Fluorophenyl)-6-(4-methylphenyl)-3-oxo-N-(3,3,3-trifluoro-2-hydroxypropyl)-2,3-dihydropyridazine-4-carboxamide] | 2.92e-08 M | > 2e-05 M | –
7 | Cc1ccc(-c2cc(C(=O)N[C@@H](C)CO)c(=O)n(-c3cccc(F)c3)n2)cc1 [Example 8, 2-(3-Fluorophenyl)-N-[(2S)-1-hydroxypropan-2-yl]-6-(4-methylphenyl)-3-oxo-2,3-dihydropyridazine-4-carboxamide] | 3.61e-08 M | > 2e-05 M | –
8 | Cc1ccc(-c2cc(C(=O)NCC(O)C(C)C)c(=O)n(-c3cccc(F)c3)n2)cc1 (centres unmarked) [Example 10, 2-(3-Fluorophenyl)-N-(2-hydroxy-3-methylbutyl)-6-(4-methylphenyl)-3-oxo-2,3-dihydropyridazine-4-carboxamide] | 1.2e-07 M | > 2e-05 M | –
9 | Cc1ccc(-c2cc(C(=O)NCC(C)O)c(=O)n(-c3cccc(F)c3)n2)cc1 (centres unmarked) [Example 13, 2-(3-Fluorophenyl)-N-(2-hydroxypropyl)-6-(4-methylphenyl)-3-oxo-2,3-dihydropyridazine-4-carboxamide] | 1.43e-07 M | > 2e-05 M | –
10 | COCC(O)CNC(=O)c1cc(-c2ccc(C)cc2)nn(-c2cccc(F)c2)c1=O (centres unmarked) [Example 16, 2-(3-Fluorophenyl)-N-(2-hydroxy-3-methoxypropyl)-6-(4-methylphenyl)-3-oxo-2,3-dihydropyridazine-4-carboxamide] | 1.74e-07 M | > 2e-05 M | –
11 | C[C@H](CO)NC(=O)c1cc(-c2ccc(Cl)cc2)nn(-c2cccc(F)c2)c1=O [Example 24, 6-(4-Chlorophenyl)-2-(3-fluorophenyl)-N-[(2R)-1-hydroxypropan-2-yl]-3-oxo-2,3-dihydropyridazine-4-carboxamide] | 3.02e-07 M | > 2e-05 M | –
12 | CC(C)C(O)CNC(=O)c1cc(-c2ccc(Cl)cc2)nn(-c2cccc(F)c2)c1=O (centres unmarked) [Example 28, 6-(4-Chlorophenyl)-2-(3-fluorophenyl)-N-(2-hydroxy-3-methylbutyl)-3-oxo-2,3-dihydropyridazine-4-carboxamide] | 8.85e-08 M | > 2e-05 M | –
13 | COCC(O)CNC(=O)c1cc(-c2ccc(Cl)cc2)nn(-c2cccc(F)c2)c1=O (centres unmarked) [Example 31, 6-(4-Chlorophenyl)-2-(3-fluorophenyl)-N-(2-hydroxy-3-methoxypropyl)-3-oxo-2,3-dihydropyridazine-4-carboxamide] | 1.61e-07 M | > 2e-05 M | –
14 | CC(O)CNC(=O)c1cc(-c2ccc(Cl)cc2)nn(-c2cccc(F)c2)c1=O (centres unmarked) [Example 34, 6-(4-Chlorophenyl)-2-(3-fluorophenyl)-N-(2-hydroxypropyl)-3-oxo-2,3-dihydropyridazine-4-carboxamide] | 1.88e-07 M | > 2e-05 M | –
15 | C[C@@H](O)CNC(=O)c1cc(-c2ccc(Cl)cc2)nn(-c2cccc(F)c2)c1=O [Example 35, 6-(4-Chlorophenyl)-2-(3-fluorophenyl)-N-[(2R)-2-hydroxypropyl]-3-oxo-2,3-dihydropyridazine-4-carboxamide] | 1.92e-07 M | > 2e-05 M | –
16 | C[C@H](O)CNC(=O)c1cc(-c2ccc(Cl)cc2)nn(-c2cccc(F)c2)c1=O [Example 36, 6-(4-Chlorophenyl)-2-(3-fluorophenyl)-N-[(2S)-2-hydroxypropyl]-3-oxo-2,3-dihydropyridazine-4-carboxamide] | 2.95e-07 M | > 2e-05 M | –
17 | O=C(NC(CO)C1CCOC1)c1cc(-c2ccc(Cl)cc2)nn(-c2cccc(F)c2)c1=O (centres unmarked) [Example 38, 6-(4-Chlorophenyl)-2-(3-fluorophenyl)-N-[2-hydroxy-1-(tetrahydrofuran-3-yl)ethyl]-3-oxo-2,3-dihydropyridazine-4-carboxamide] | 3.87e-08 M | > 2e-05 M | –
18 | O=C(NCC(O)C(F)(F)F)c1cc(-c2ccc(Cl)cc2)nn(-c2cc(F)cc(F)c2)c1=O (centres unmarked) [Example 44, 6-(4-Chlorophenyl)-2-(3,5-difluorophenyl)-3-oxo-N-(3,3,3-trifluoro-2-hydroxypropyl)-2,3-dihydropyridazine-4-carboxamide] | 1.99e-08 M | > 2e-05 M | –
19 | CC(C)C(O)CNC(=O)c1cc(-c2ccc(Cl)cc2)nn(-c2cc(F)cc(F)c2)c1=O (centres unmarked) [Example 48, 6-(4-Chlorophenyl)-2-(3,5-difluorophenyl)-N-(2-hydroxy-3-methylbutyl)-3-oxo-2,3-dihydropyridazine-4-carboxamide] | 4.93e-08 M | > 2e-05 M | –
20 | Cc1ccc(-c2cc(C(=O)NCC(O)C(F)(F)F)c(=O)n(-c3cc(F)cc(F)c3)n2)cc1 (centres unmarked) [Example 52, 2-(3,5-Difluorophenyl)-6-(4-methylphenyl)-3-oxo-N-(3,3,3-trifluoro-2-hydroxypropyl)-2,3-dihydropyridazine-4-carboxamide] | 1.17e-08 M | > 2e-05 M | –
21 | Cc1ccc(-c2cc(C(=O)NCC(O)C(C)C)c(=O)n(-c3cc(F)cc(F)c3)n2)cc1 (centres unmarked) [Example 56, 2-(3,5-Difluorophenyl)-N-(2-hydroxy-3-methylbutyl)-6-(4-methylphenyl)-3-oxo-2,3-dihydropyridazine-4-carboxamide] | 4e-08 M | > 2e-05 M | –
22 | C[C@@H](CO)NC(=O)c1cc(-c2ccc(Cl)cc2)nn(-c2cccc(Cl)c2)c1=O [Example 66, 2-(3-Chlorophenyl)-6-(4-chlorophenyl)-N-[(2S)-1-hydroxypropan-2-yl]-3-oxo-2,3-dihydropyridazine-4-carboxamide] | 1.65e-07 M | > 2e-05 M | –
23 | CC(C)[C@@H](CO)NC(=O)c1cc(-c2ccc(Cl)cc2)nn(-c2ccccc2)c1=O [Example 75, 6-(4-chlorophenyl)-N-[(2S)-1-hydroxy-3-methylbutan-2-yl]-3-oxo-2-phenyl-2,3-dihydropyridazine-4-carboxamide] | 3.45e-08 M | > 2e-05 M | –
24 | O=C(NCC(O)C(F)(F)F)c1cc(-c2ccc(Cl)cc2)nn(-c2ccccc2)c1=O (centres unmarked) [Example 76, 6-(4-chlorophenyl)-3-oxo-2-phenyl-N-(3,3,3-trifluoro-2-hydroxypropyl)-2,3-dihydropyridazine-4-carboxamide] | 9.37e-08 M | > 2e-05 M | –
25 | C[C@@H](CO)NC(=O)c1cc(-c2ccc(Cl)cc2)nn(-c2ccccc2)c1=O [Example 80, 6-(4-chlorophenyl)-N-[(2S)-1-hydroxypropan-2-yl]-3-oxo-2-phenyl-2,3-dihydropyridazine-4-carboxamide] | 2.14e-07 M | > 2e-05 M | –
